# Measurements published in patent publication US12558366B2, “Bacterial DNA gyrase inhibitors and methods of use thereof” (THE FLORIDA INTERNATIONAL UNIVERSITY BOARD OF TRUSTEES, priority 2021, dated 2026).
# Entries after “also recorded” stand apart in the source; their conditions may differ.
# Key:
# E. coli DNA gyrase [1] = biological target: T1, E. coli DNA gyrase (Escherichia coli, UniProt P0AES4+P0AES6); experiment: SDFQ HTS assay of E. coli DNA gyrase (1536-well); type: biochemical; conditions: read-out: inhibition activities against E. coli DNA gyrase
# Experimental: SDFQ HITS primary assay using pAB1_FL905 was performed in 2 μL of (1×DNA gyrase buffer: 20 mM Tris-Acetate pH 7.9, 50 mM KAc, 10 mM MgCl2, 2 mM DTT, 1 mM ATP, 0.1 mg/ml. BSA). […] 3) Spun plate at 800 rpm for 30 seconds. […] SDFQ HTS secondary assay using pAB1_FL924 was performed in 2 μL of (1×DNA gyrase buffer: 20 mM Tris-Acetate pHI 7.9, 50 mM KAc, 10 mM MgCl2, 2 mM DTT, 1 mM ATP, 0.1 mg/mL BSA). […] 3) Spun plate at 800 rpm for 30 seconds.
# E. coli DNA gyrase [2] = biological target: T1, E. coli DNA gyrase; experiment: E. coli DNA gyrase inhibition (agarose gel-based and/or SDFQ-based, not specified per value); type: biochemical; conditions: Table 2 values; read-out: IC50 ( ≤15 μM) IC50
# E. coli DNA gyrase [3] = biological target: T1, E. coli DNA gyrase; experiment: DNA gyrase mediated DNA cleavage assay; type: biochemical; conditions: plasmid pBR322
# Experimental: 250 ng of supercoiled pBR322 plasmid were incubated with 50 nM of E. coli DNA gyrase in reactions containing 35 mM Tris-HCl, 24 mM KCl, 4 mM MgCl2, 2 mM DTT, 0.1 mg/mL BSA, 6.5% glycerol, and 1.75 mM ATP, in presence of 200 μM of compounds, at 37° C. for 15 min. Then, 0.2% (w/v) of SDS and 0.1 mg/mL proteinase K were added, and samples were incubated at 37° C. for 1 h. […] Samples were examined by electrophoresis in 1% w/v agarose gel containing 0.5 μg/mL ethidium bromide and photographed under UV light.
# E. coli imp = experiment: microbe, parasite or virus in culture; type: cell-based; conditions: Escherichia coli, read-out: Minimum Inhibitory Concentration E. coli imp
# Experimental: (§1) Antibacterial minimum inhibitory concentrations (MICs) were obtained from three independent experiments using broth microdilution methods in 96-well plates according to Clinical and Laboratory Standards Institute guidelines. Cells were culture from singles colonies in MHIIB medium for 24 h at 37° C. in agitation (200 RPM). The cultures were then diluted using the same media to reach an OD600 of 0.1. Then, 50 μL of the diluted cultures were added to the plates holding 50 μL of serially diluted compounds in MHIIB. The plates were incubated at 37° C. for 20 h. The starting inoculum was fixated to 10^5 colony-forming units per ml.
# MRSA (ATCC BAA44) = experiment: microbe, parasite or virus in culture; type: cell-based, S. aureus
# Experimental: as §1
# E. coli (ATCC 25922) = experiment: Minimum inhibitory concentration, E. coli; type: cell-based; conditions: wildtype strain ATCC 25922
# Experimental: as §1
# [4] = biological target: human DNA topoisomerase 2α (Homo sapiens, UniProt P11388); experiment: Human DNA topoisomerase 2α-mediated DNA cleavage assays; type: biochemical; conditions: plasmid pBR322
# S. aureus (ATCC 14775) = experiment: Minimum inhibitory concentration, S. aureus; type: cell-based
# Experimental: as §1
# Mtb DNA gyrase = Mtb DNA gyrase (Mycobacterium tuberculosis, UniProt P9WG45+P9WG47); experiment: Mtb DNA gyrase inhibition; type: biochemical
# E. coli DNA gyrase [5] = biological target: T1, E. coli DNA gyrase; experiment: E. coli DNA gyrase ATPase assays; type: biochemical
# Experimental: E. coli DNA gyrase ATPase assays were performed in 60 μl, of 1×gyrase ATPase buffer (10 mM Tris.HCl (pH 7.5), 0.2 mM EDTA, 1 mM magnesium chloride, 1 mM DTT, and 2% (w/v) glycerol) containing 50 nM E. coli DNA gyrase, 200 ng rx pAB1, 0.8 mM Phosphoenol pyruvate, 1.2 units of Pyruvate kinase, 1.7 units of lactate dehydrogenase, and 0.4 mM of NADH at 37° C. After the reaction mixtures are incubated on ice for 5 minutes, 2 mM of ATP is added to initiate the reaction. Absorbance at OD340 nm is monitored for up to 30 minutes at 37° C. in a spectrophotometer.
# T1 sequence (P0AES4 whole entry, one chain of several): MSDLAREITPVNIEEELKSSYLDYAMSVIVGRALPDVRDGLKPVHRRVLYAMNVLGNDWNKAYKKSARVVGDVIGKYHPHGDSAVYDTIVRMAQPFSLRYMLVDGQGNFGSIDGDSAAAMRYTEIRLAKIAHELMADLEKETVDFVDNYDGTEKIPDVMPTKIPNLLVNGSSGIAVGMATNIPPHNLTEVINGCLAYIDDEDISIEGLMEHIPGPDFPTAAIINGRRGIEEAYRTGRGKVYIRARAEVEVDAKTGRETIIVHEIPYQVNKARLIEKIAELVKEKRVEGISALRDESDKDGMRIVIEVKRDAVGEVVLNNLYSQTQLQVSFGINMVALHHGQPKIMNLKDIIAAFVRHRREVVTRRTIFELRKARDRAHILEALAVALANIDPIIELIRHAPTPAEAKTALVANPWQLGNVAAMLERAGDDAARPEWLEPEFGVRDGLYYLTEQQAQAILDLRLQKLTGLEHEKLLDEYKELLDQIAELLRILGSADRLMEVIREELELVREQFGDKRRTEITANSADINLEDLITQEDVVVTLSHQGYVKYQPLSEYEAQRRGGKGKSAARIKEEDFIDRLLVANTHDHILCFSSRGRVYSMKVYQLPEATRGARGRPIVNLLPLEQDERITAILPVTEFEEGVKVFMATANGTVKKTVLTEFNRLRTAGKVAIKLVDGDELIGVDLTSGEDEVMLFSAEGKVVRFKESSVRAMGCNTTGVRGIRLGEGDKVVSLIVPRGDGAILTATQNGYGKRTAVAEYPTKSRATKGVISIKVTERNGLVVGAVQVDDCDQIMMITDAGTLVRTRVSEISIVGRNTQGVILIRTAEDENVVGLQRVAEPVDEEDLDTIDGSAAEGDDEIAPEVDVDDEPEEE
# Sequence of human DNA topoisomerase 2α (P11388 whole entry): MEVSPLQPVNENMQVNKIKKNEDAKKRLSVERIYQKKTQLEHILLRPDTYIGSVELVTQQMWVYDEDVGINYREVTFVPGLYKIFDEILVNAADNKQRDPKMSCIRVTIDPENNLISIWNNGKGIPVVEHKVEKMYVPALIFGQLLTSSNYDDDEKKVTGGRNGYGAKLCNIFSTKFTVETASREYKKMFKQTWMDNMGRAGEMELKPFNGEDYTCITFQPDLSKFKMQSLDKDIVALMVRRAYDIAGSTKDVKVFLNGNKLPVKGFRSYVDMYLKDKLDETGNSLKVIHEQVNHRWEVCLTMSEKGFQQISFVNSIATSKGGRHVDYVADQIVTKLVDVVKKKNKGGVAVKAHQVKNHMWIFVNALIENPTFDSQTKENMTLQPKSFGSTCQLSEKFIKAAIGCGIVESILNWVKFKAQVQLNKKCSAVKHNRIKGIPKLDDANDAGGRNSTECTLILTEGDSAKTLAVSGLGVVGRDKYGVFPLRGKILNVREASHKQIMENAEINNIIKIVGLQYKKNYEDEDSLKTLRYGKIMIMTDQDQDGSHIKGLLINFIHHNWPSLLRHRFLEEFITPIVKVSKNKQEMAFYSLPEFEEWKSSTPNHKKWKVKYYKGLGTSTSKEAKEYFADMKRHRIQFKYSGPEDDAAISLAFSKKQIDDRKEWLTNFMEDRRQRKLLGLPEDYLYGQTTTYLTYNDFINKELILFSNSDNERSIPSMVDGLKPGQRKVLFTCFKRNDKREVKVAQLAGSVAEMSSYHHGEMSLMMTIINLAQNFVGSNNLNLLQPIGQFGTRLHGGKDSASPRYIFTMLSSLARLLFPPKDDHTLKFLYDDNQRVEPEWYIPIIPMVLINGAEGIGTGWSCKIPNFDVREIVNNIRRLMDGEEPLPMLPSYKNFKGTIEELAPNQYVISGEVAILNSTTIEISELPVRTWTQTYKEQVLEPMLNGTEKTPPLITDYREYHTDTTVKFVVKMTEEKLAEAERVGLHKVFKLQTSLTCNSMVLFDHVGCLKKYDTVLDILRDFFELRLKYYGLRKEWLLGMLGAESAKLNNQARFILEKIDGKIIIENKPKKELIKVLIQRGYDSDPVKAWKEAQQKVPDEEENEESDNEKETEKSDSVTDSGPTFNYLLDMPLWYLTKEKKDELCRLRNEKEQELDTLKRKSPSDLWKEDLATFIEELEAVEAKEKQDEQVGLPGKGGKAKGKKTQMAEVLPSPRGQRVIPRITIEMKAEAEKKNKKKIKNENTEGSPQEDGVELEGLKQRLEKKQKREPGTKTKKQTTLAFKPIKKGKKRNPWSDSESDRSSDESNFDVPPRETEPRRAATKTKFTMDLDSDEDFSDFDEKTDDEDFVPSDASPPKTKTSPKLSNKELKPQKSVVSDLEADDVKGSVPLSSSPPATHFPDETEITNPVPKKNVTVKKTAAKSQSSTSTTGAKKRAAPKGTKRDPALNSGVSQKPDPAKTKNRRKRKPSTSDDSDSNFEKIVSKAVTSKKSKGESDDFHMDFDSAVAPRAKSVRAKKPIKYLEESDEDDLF
# Sequence of Mtb DNA gyrase (P9WG45 whole entry): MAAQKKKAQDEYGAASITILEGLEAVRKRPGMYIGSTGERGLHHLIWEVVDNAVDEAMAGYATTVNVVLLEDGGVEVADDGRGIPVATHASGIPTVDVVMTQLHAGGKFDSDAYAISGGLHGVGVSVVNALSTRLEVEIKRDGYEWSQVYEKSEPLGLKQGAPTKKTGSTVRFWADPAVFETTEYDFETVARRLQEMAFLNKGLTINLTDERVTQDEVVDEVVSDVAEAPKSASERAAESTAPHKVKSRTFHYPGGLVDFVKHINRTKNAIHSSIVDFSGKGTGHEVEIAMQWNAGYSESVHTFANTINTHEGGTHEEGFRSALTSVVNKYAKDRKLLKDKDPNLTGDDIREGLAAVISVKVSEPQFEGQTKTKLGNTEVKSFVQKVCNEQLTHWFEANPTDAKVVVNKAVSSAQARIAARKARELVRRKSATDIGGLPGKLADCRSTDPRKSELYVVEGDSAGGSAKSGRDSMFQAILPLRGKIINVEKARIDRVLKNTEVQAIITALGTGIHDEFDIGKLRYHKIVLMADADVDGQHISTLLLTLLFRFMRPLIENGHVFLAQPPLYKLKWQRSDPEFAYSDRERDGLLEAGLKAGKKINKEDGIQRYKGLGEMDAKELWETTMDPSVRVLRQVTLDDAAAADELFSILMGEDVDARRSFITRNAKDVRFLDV
# Sequence of Mtb DNA gyrase (P9WG47 whole entry): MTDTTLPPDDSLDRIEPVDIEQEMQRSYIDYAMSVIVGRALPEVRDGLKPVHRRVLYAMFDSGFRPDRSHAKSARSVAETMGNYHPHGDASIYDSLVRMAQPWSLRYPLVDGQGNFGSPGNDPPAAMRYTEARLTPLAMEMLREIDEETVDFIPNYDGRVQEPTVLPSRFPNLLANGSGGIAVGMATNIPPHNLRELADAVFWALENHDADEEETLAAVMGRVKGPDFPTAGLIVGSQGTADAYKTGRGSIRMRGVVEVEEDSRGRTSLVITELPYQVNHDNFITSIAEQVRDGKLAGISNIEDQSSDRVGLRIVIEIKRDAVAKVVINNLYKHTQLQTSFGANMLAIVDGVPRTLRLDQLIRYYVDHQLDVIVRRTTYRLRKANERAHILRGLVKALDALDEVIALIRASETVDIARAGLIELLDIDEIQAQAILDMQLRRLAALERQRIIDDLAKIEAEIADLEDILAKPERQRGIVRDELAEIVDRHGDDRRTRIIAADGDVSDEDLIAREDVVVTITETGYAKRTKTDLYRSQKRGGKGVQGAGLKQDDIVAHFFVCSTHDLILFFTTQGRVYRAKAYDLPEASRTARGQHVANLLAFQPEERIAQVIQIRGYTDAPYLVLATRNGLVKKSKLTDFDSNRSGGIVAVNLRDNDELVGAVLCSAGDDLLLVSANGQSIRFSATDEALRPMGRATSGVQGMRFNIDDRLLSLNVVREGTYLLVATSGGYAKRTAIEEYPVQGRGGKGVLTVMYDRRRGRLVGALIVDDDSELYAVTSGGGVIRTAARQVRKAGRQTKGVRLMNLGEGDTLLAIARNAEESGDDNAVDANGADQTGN
structure (smiles),measurement,setting,value
Cc1ccc(C(=O)Nc2ccc(S(=O)(=O)O)c3cc(S(=O)(=O)O)cc(S(=O)(=O)O)c23)cc1NC(=O)c1cccc(NC(=O)Nc2cccc(C(=O)Nc3cc(C(=O)Nc4ccc(S(=O)(=O)O)c5cc(S(=O)(=O)O)cc(S(=O)(=O)O)c45)ccc3C)c2)c1 [suramin],inhibition at 5 µM,E. coli DNA gyrase [1],> 40%
"N=C(N)Nc1nc(-c2ccccc2)c2cc(Cl)ccc2n1 [Compound 154, N-(6-chloro-4-phenylquinazolin-2-yl)guanidine]",IC50,E. coli DNA gyrase [2],3.12 µM
same,DNA gyrase-mediated double stranded DNA breaks / DNA nicking,E. coli DNA gyrase [3],causes the gyrase-mediated DNA double-stranded breaks and single-stranded nicks; also recorded: bacterial DNA gyrase poison
same,MIC,E. coli imp,50 to 100 µM
same,growth inhibition of MRSA,MRSA (ATCC BAA44),significant antibacterial activities
same,antibacterial activities against E. coli,E. coli (ATCC 25922),significant antibacterial activities
same,human topoisomerase 2α-mediated DNA nicks and double-stranded breaks,[4],causes the human topoisomerase 2α-mediated DNA nicks and double-stranded breaks
same,growth inhibition of S. aureus,S. aureus (ATCC 14775),significant antibacterial activities
"Cc1cc(O)c2c(c1)C(=O)c1cc(O)cc(O)c1C2=O [Compound 242, Emodin]",inhibition at 5 µM,E. coli DNA gyrase [1],> 40%
N[C@@H]1[C@H]2CN(c3nc4c(cc3F)c(=O)c(C(=O)O)cn4-c3ccc(F)cc3F)C[C@@H]12 [trovafloxacin],inhibition at 5 µM,E. coli DNA gyrase [1],> 40%
"CNC(=O)[C@H]1O[C@@H](n2cnc3c(NCc4cccc(I)c4)nc(Cl)nc32)[C@H](O)[C@@H]1O [chloro-IB-MECA, reference compound]",inhibition of Mtb DNA gyrase activities,Mtb DNA gyrase,did not inhibit
same,DNA gyrase-mediated double stranded DNA breaks / DNA nicking,E. coli DNA gyrase [3],did not DNA double stranded DNA 10 breaks
same,inhibition of the ATPase activities of E. coli DNA gyrase,E. coli DNA gyrase [5],inhibition of the ATPase activities
same,mode of inhibition (ATP competitive),E. coli DNA gyrase [5],ATP competitive inhibitors
CCn1cc(C(=O)O)c(=O)c2cc(F)c(N3CCNC(C)C3)c(F)c21 (stereo not drawn) [lomefloxacin],inhibition at 5 µM,E. coli DNA gyrase [1],> 40%
